According to US10961270B2, “Compounds and compositions for treating conditions associated with sting activity” (Innate Tumor Immunity, Inc., priority 2016, dated 2021):
Like-named read-outs stand apart in the source and are kept apart here.

Columns and labels:
[1] = system: STING pathway (IRF pathway reporter, THP1-Dual cells); assay: STING pathway activation, IRF pathway secreted luciferase (Lucia) reporter in THP1-Dual cells; format: cell-based; conditions: Quanti LUC luminescence, 24-hour and 48-hour plates prepared, duration not given, read-out: IRF3 (EC50 μM)
Procedure: (§1) STING pathway activation by the compounds described herein was measured using THP1-Dual™ cells. These cells are THP1 monocytes that have been modified to be reporters for the NF[…]B pathway (by inducing secreted embryonic alkaline phosphatase (SEAP) expression) and the IRF pathway (by inducing secreted luciferase (LUCIA)). Both of these pathways are activated by STING agonists in these cells.
(§2) THP1 Dual™ cells (obtained from Invivogen) are maintained in a cell growth medium that includes Roswell Park Memorial Institute medium (RPMI), 10% fetal calf serum (FCS), 100 U/ml Pen/Strep, 2 mM L-glut, 10 mM Hepes, and 1 mM sodium pyruvate. Prior to the assay, the cells were transferred to an assay medium that includes is RPMI, 5% FCS, 100 U/ml Pen/Strep, 2 mM L-glut, 10 mM Hepes, and 1 mM sodium pyruvate. Cells were then counted and evaluated for viability by trypan blue exclusion assay.
(§3) Compounds were dissolved in water or DMSO depending, for example, on their solubility in water or DMSO. The compounds are then diluted in the assay medium and plated into wells of a 384-well tissue culture plate in […] portions. Cells are then added in […] assay medium to result in a final cell concentration of 80,000 cells per well.
(§4) For each set of compounds, two plates were prepared: one plate that was subjected to a 24-hour assay duration, and one plate that was subjected to a 48-hour assay duration. The plates are incubated during their respective assay durations at 37° C., with 5% CO2.
(§5) To carry out the secreted embryonic alkaline phosphatase reporter, 10 µL of cell supernatant was mixed with 90 μL of QUANTI-Blue in a flat-bottom 384 well plate. The plates were incubated at 37′C for 1-2 hours. SEAP activity was measured using a spectrophotometer set at 620 nm. In the secreted luciferase (i.e., Lucia) assay, 10 µL of THP1-Blue™ WASG cell supernatant was plated, then 50 μL Quanti LUC Solution was added. Luminescence of the wells was then measured.

[2] = system: STING pathway (NFκB pathway reporter, THP1-Dual cells); assay: STING pathway activation, NFκB pathway secreted embryonic alkaline phosphatase (SEAP) reporter in THP1-Dual cells; format: cell-based; conditions: QUANTI-Blue, 620 nm, 24-hour and 48-hour plates prepared, duration not given
Procedure: as §1, §2, §3, §4, §5

Molecule | EC50 [1] [µM] | EC50 [2] [µM] | EC50 ([1]; Homo sapiens, THP1-Dual) [µM] | EC50 ([2]; Homo sapiens, THP1-Dual) [µM] | further results
Nc1ncnc2c1ncn2[C@@H]1O[C@@H]2COP(=O)(S)N[C@H]3[C@@H](O)[C@H](n4cnc5c(N)ncnc54)O[C@@H]3COP(=O)(S)N[C@H]2[C@H]1O (single isomer, unassigned) [Compound 74-0A1] | 1 to 10 | 1 to 10 |  |  | 
Nc1ncnc2c1ncn2[C@@H]1O[C@@H]2COP(=O)(S)N[C@H]3[C@@H](O)[C@H](n4cnc5c(N)ncnc54)O[C@@H]3COP(=O)(S)N[C@H]2[C@H]1O (single isomer, unassigned) [Compound 74-0A2] | 1 to 10 | < 1 |  |  | 
Nc1ncnc2c1ncn2[C@@H]1O[C@@H]2COP(=O)(S)N[C@H]3[C@@H](O)[C@H](n4cnc5c(N)ncnc54)O[C@@H]3COP(=O)(O)N[C@H]2[C@H]1O (single isomer, unassigned) [Compound 74-0B0] |  |  | 10 to 49 | 10 to 49 | 
Nc1ncnc2c1ncn2[C@@H]1O[C@@H]2COP(=O)(S)N[C@H]3[C@@H](O)[C@H](n4cnc5c(N)ncnc54)O[C@@H]3COP(=O)(S)N[C@H]2[C@H]1O (single isomer, unassigned) [Compound 74-0B1] | 10 to 49 | 50 to 100 |  |  | 
Nc1nc2c(ncn2[C@@H]2O[C@@H]3COP(=O)(S)N[C@H]4[C@@H](O)[C@H](n5cnc6c(=O)[nH]c(N)nc65)O[C@@H]4COP(=O)(O)N[C@H]3[C@H]2O)c(=O)[nH]1 (single isomer, unassigned) [Compound 76-0A1] |  |  | 10 to 49 | 1 to 10 | 
Nc1nc2c(ncn2[C@@H]2O[C@@H]3COP(=O)(S)N[C@H]4[C@@H](O)[C@H](n5cnc6c(=O)[nH]c(N)nc65)O[C@@H]4COP(=O)(S)N[C@H]3[C@H]2O)c(=O)[nH]1 (single isomer, unassigned) [Compound 76-0A2] | 10 to 49 | 10 to 49 |  |  | 
Nc1nc2c(ncn2[C@@H]2O[C@@H]3COP(=O)(S)N[C@H]4[C@@H](O)[C@H](n5cnc6c(=O)[nH]c(N)nc65)O[C@@H]4COP(=O)(S)N[C@H]3[C@H]2O)c(=O)[nH]1 (single isomer, unassigned) [Compound 76-0A3] | 1 to 10 | < 1 |  |  | 
Nc1nc2c(ncn2[C@@H]2O[C@@H]3COP(=O)(S)N[C@H]4[C@@H](O)[C@H](n5cnc6c(=O)[nH]c(N)nc65)O[C@@H]4COP(=O)(S)N[C@H]3[C@H]2O)c(=O)[nH]1 (single isomer, unassigned) [Compound 76-0B1] | 10 to 49 | 50 to 100 |  |  | 
Nc1ncnc2c1ncn2[C@@H]1O[C@@H]2COP(=O)(O)N[C@H]3[C@@H](O)[C@H](n4cnc5c(N)ncnc54)O[C@@H]3COP(=O)(O)N[C@H]2[C@H]1O [Compound 73, Diammonium (1S,6S,8R,9R,10S,15S,17R,18R)-8,17-bis(6-amino-9H-purin-9-yl)-9,18-dihydroxy-3,12-dioxo-4,7,13,16-tetraoxa-2,11-diaza-3λ^s,12λ^s-diphosphatricyclo[13.3.0.0^6,10]octadecane-3,12-bis(olate)] |  |  | 10 to 49 | 1 to 10 | 
Nc1nc2c(ncn2[C@@H]2O[C@@H]3COP(=O)(O)N[C@H]4[C@@H](O)[C@H](n5cnc6c(=O)[nH]c(N)nc65)O[C@@H]4COP(=O)(O)N[C@H]3[C@H]2O)c(=O)[nH]1 [Compound 75, Diammonium (1S,6S,8R,9R,10S,15S,17R,18R)-8,17-bis(2-amino-6-oxo-6,9-dihydro-1H-purin-9-yl)-9,18-dihydroxy-3,12-dioxo-4,7,13,16-tetraoxa-2,11-diaza-3λ^s,12λ^s-diphosphatricyclo[13.3.0.0^6,10]octadecane-3,12-bis(olate)] |  |  | 10 to 49 | 10 to 49 | 
Nc1ncnc2c1ncn2[C@@H]1O[C@@H]2CNP(=O)(S)O[C@H]3[C@@H](F)[C@H](n4cnc5c(N)ncnc54)O[C@@H]3CNP(=O)(S)O[C@H]2[C@H]1F (stereo partly drawn) [Compound 77, Diammonium [(1R,6R,8R,9R,10R,15R,17R,18R)-8,17-bis(6-amino-9H-purin-9-yl)-9,18-difluoro-3,12-dioxo-12-sulfanidyl-2,7,11,16-tetraoxa-4,13-diaza-3λ^s,12λ^s-diphosphatricyclo[13.3.0.0^6,10]octadecan-3-yl]sulfanide] |  |  |  |  | EC50 ([1]; Homo sapiens): 50 to 100 µM; EC50 ([2]; Homo sapiens): 50 to 100 µM
Nc1ncnc2c1ncn2[C@@H]1O[C@@H]2COP(=O)(O)N[C@H]3[C@@H](F)[C@H](n4cnc5c(N)ncnc54)O[C@@H]3COP(=O)(O)N[C@H]2[C@H]1F [Compound 78, Diammonium (1R,6S,8R,9R,10R,15S,17R,18R)-8,17-bis(6-amino-9H-purin-9-yl)-9,18-difluoro-3,12-dioxo-4,7,13,16-tetraoxa-2,11-diaza-3λ^s,12λ^s-diphosphatricyclo[13.3.0.0^6,10]octadecane-3,12-bis(olate)] |  |  | 50 to 100 | 50 to 100 | 
Diammonium [(1S,6S,8R,9R,10S,15S,17R,18R)-8-(2-amino-6-oxo-6,9-dihydro-1H-purin-9-yl)-17-(6-amino-9H-purin-9-yl)-9,18-dihydroxy-3,12-dioxo-12-sulfanidyl-4,7,13,16-tetraoxa-2,11-diaza-3λ^s,12λ^s-diphosphatricyclo[13.3.0.0^6,10]octadecan-3-yl]sulfanide [Compound 72-0A2] | 1 to 10 | 1 to 10 |  |  | 
Diammonium [(1S,6S,8R,9R,10S,15S,17R,18R)-8-(2-amino-6-oxo-6,9-dihydro-1H-purin-9-yl)-17-(6-amino-9H-purin-9-yl)-9,18-dihydroxy-3,12-dioxo-12-sulfanidyl-4,7,13,16-tetraoxa-2,11-diaza-3λ^s,12λ^s-diphosphatricyclo[13.3.0.0^6,10]octadecan-3-yl]sulfanide [Compound 72-0A3] | 1 to 10 | < 1 |  |  | 
Diammonium [(1S,6S,8R,9R,10S,15S,17R,18R)-8-(2-amino-6-oxo-6,9-dihydro-1H-purin-9-yl)-17-(6-amino-9H-purin-9-yl)-9,18-dihydroxy-3,12-dioxo-12-sulfanidyl-4,7,13,16-tetraoxa-2,11-diaza-3λ^s,12λ^s-diphosphatricyclo[13.3.0.0^6,10]octadecan-3-yl]sulfanide [Compound 72-0B1] | 1 to 10 | 50 to 100 |  |  | 
Diammonium [(1S,6S,8R,9R,10S,15S,17R,18R)-8-(2-amino-6-oxo-6,9-dihydro-1H-purin-9-yl)-17-(6-amino-9H-purin-9-yl)-9,18-dihydroxy-3,12-dioxo-12-sulfanidyl-4,7,13,16-tetraoxa-2,11-diaza-3λ^s,12λ^s-diphosphatricyclo[13.3.0.0^6,10]octadecan-3-yl]sulfanide [Compound 72-0B2] | 10 to 49 | 10 to 49 |  |  | 
